Data published in paper PMC4910235, “Selenophene and thiophene-core estrogen receptor ligands that inhibit motility and development of parasitic stages of Haemonchus contortus” (Parasites & Vectors, 2016).
Entries after “also recorded” stand apart in the source; their conditions may differ.

Legend:
[1] = molecular target: T1, human ERα ligand binding domain (Homo sapiens, UniProt P03372); assay: Competitive fluorometric receptor-binding assay, ERα; conditions: estradiol = 100 %; fluorescence polarisation, coumestrol tracer
T1 sequence (P03372 311-547 limits assumed): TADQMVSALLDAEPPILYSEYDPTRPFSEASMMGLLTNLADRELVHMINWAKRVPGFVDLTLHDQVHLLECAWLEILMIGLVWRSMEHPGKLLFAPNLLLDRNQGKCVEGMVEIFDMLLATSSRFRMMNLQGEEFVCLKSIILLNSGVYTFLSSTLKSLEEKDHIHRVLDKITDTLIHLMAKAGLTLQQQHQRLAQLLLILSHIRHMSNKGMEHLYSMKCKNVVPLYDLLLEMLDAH
Description: (§1) Relative binding affinities were determined by a competitive fluorometric binding assay, as described previously. Briefly, 40 nM fluorescence tracer (coumestrol, Sigma-Aldrich) and 0.8 μM purified human ERα or ERβ ligand binding domain were diluted in 100 mM potassium phosphate buffer (pH 7.4), containing 100 μg/ml bovine γ-globulin (Sigma-Aldrich), and an equal volume of test compound was added. Incubation was for 2 h at 25 °C. The fluorescence polarisation values were measured. […] The values given are the average ± range of two independent determinations. IC50 values were calculated using a published formula [29].

ERβ = molecular target: T2, ERβ (Homo sapiens, UniProt Q92731); assay: 3×ERE-luciferase reporter gene assay in HEK 293 T cells, ERβ; format: cell-based
T2 construct: expressed in transfected cells; host or cells: HEK 293 T
Description: (§2) Cells in phenol red-free DMEM with 10 % FBS were plated. […] The next day, the cells were treated with increasing doses of ER ligands diluted in phenol red-free DMEM with 10 % FBS. After 24 h, luciferase activity was measured using the dual-luciferase reporter assay system (Promega, Fitchburg, USA) performed according to the manufacturer’s protocol.

ERα = molecular target: T3, ERα (Homo sapiens, UniProt P03372); assay: 3×ERE-luciferase reporter gene assay in HEK 293 T cells, ERα; format: cell-based
T3 construct: expressed in transfected cells; host or cells: HEK 293 T
T3 sequence (P03372 1-595): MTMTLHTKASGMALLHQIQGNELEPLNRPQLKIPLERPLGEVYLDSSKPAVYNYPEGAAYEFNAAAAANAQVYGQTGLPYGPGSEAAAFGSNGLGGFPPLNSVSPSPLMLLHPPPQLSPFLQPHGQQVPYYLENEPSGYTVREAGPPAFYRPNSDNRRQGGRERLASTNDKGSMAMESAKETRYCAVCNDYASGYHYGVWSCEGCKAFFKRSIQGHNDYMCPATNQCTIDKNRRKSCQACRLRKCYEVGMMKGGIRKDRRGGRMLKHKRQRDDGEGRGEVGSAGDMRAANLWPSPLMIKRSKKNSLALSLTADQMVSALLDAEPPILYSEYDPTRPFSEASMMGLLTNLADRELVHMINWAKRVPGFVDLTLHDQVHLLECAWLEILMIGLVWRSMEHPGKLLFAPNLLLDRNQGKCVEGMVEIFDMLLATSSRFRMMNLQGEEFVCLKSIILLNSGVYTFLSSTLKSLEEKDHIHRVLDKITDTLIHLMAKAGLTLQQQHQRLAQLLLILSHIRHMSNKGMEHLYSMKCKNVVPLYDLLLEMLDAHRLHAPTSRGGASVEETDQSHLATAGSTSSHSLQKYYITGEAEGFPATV
Description: as §2

[2] = molecular target: human ERβ ligand binding domain (Homo sapiens, UniProt Q92731); assay: Competitive fluorometric receptor-binding assay, ERβ; conditions: estradiol = 100 %; fluorescence polarisation, coumestrol tracer
Description: as §1

[3] = percentage of 10^-8 M 17β-estradiol, mean ± SD

T2 sequence (Q92731 whole entry): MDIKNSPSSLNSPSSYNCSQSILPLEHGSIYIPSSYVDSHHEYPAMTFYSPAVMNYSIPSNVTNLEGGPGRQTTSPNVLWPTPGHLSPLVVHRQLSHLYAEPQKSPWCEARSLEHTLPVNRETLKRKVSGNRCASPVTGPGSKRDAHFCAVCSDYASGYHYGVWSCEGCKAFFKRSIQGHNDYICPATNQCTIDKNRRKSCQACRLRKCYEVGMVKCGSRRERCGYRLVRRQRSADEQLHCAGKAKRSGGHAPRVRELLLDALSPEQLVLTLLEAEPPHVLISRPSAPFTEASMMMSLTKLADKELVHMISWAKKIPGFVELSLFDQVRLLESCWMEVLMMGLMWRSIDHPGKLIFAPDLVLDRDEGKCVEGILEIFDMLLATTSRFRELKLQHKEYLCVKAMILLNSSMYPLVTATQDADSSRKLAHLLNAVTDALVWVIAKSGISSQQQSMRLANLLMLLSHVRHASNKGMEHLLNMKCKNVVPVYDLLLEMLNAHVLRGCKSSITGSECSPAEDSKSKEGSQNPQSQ
human ERβ ligand binding domain, sequence (Q92731 264-498 limits assumed): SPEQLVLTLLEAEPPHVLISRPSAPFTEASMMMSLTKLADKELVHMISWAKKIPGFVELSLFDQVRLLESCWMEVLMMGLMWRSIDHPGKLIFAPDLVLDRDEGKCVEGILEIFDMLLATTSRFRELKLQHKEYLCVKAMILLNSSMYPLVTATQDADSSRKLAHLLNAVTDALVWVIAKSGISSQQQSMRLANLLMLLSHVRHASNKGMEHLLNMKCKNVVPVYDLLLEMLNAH

| SMILES | relative binding affinity (RBA) ERα [1] [%] | IC50 (ERβ; against 10^-8 M E2, read-out: Antagonist mode ERβ IC50) [µM] | EC50 (ERβ; doses up to 10^-5 M, read-out: Agonist mode ERβ EC50) [µM] | profile on ERβ (agonist/antagonist) (ERβ; luciferase reporter) | Antagonist mode ERβ Eff (%E2) (ERβ; [3]) | IC50 (ERα; against 10^-8 M E2, read-out: Antagonist mode ERα IC50) [µM] | EC50 (ERα; doses up to 10^-5 M, read-out: Agonist mode ERα EC50) [µM] | Agonist mode ERα Efficacy (%E2) (ERα; [3]) | Antagonist mode ERα Efficacy (%E2) (ERα; [3]) | relative binding affinity (RBA) ERβ [2] [%] | profile on ERα (agonist/antagonist) (ERα; luciferase reporter) |
| --- | --- | --- | --- | --- | --- | --- | --- | --- | --- | --- | --- |
| Oc1ccc(-c2ccc(-c3ccc(O)cc3Cl)[se]2)c(Cl)c1 [WZY-2] | 6.11 | 3.02 | > 10 | antagonist | 13.9 ± 5.3 | > 10 | > 10 | -21 ± 13 | 73 ± 8 | 12.7 |  |
| Cc1cc(O)ccc1-c1ccc(-c2ccc(O)cc2F)s1 [MJ-22] |  |  |  |  |  |  |  |  |  |  | super-agonist; also recorded: agonists |
